Legend:
[1] = test system: A549 human lung carcinoma cells; test: Live-cell imaging of the aptamer-modulated split GFP response to intracellular ATP; format: cell-based; conditions: cells treated with ssAPC/ipGFP1-9 and Oligomycin A, compared to untreated controls
Protocol: A549 human lung carcinoma cells were obtained from the Korean Cell Line Bank (Seoul, South Korea). The cells were cultured at 37°C and 5% CO2 in DMEM containing 10% FBS (v/v) and penicillin/streptomycin (Thermo Fisher Scientific, Waltham, MA, USA). A549 cells were seeded at a density of 1 × 10^4 cells/well in 96-well cell culture black plates (Greiner Bio One, Kremsmünster, Austria). After 24 h, the cells were transfected with naïve GFP, ipGFP1-9, and aptamer-peptide complexes using Lipofectamine 3000 (Thermo Fisher Scientific, Waltham, MA, USA) according to the manufacturer's instructions. The cells were imaged using the Cytation 7 Cell Imaging Multi-Mode Reader (BioTek Instruments, Winooski, VT, USA) with excitation/emission wavelengths of 488/525 nm for 24 h under cultivation conditions with 5% CO2 at 37°C. Images were analyzed using ImageJ software (https://imagej.nih.gov).
For starvation experiments, A549 cells were seeded at a density of 1 × 10^6 cells/dish in 100 mm^2 cell culture dishes. After incubation for 24 h, the medium was changed to DMEM without glucose. […] Intracellular ATP concentrations were measured using an ATP assay kit (Abcam, Cambridge, MA, USA) according to the manufacturer's instructions.
Finally, we assessed the functionality of aptamer-modulated split GFP to respond to intracellular ATP levels via the reassembly within cells. […]

[2] = test system: tripartite split-GFP (ipGFP1-9); test: ATP-mediated in vitro reconstitution of tripartite split-GFP (ssAPC + ipGFP1-9), fluorescence time course; format: biochemical; conditions: 10 mM of each nucleotide, 12 h incubation
Protocol: We prepared a 50 μL mixture containing 1 μM aptamer-peptide complex and 20 μM ipGFP1-9 in ATP binding buffer (ATPBB; 20 mM Tris, 300 mM NaCl and 5 mM MgCl2, pH 7.4). These mixtures were transferred to a 384-well black microplate (Greiner Bio One, Kremsmünster, Austria) and challenged with various concentrations of ATP (2–10 mM). Fluorescence intensities were measured over a time course of 20 h at 5 min intervals using the extended mode of Cytation 7 (BioTek, Winooski, VT, USA) with excitation/emission wavelengths of 488/525 nm.
To assess the functionality of the aptamer-split peptide conjugate for GFP function modulation, we performed a time-course in vitro reconstitution assay with ssAPC and split GFP1-9 in the presence of varying concentrations of ATP (Figure 2A). Our group previously reported an in vitro reconstitution application using intein-mediated purified split GFP1-9 (ipGFP1-9) with improved solubility and expression levels to provide evidence of compatibility for application in this study ([28]). […] In the absence of ATP, we observed a modest background signal that could yield a false-positive result at earlier time-points (Figure 2A, dark gray trace), although this could readily be distinguished as a negative result relative to ATP-containing samples at later time-points. […] As aforementioned, according to Kang et al., the performance of this ATP aptamer has been proven by measuring EC50 values in terms of ATP-induced structure-switching with different lengths of antisense DNAs (11–18 nt) ([27]).
We also verified the specificity of our system towards ATP as a trigger molecule by assessing its response to other nucleotides such as UTP, GTP and CTP under identical conditions. To validate the low false-positive rate of self-assembly or non-specific binding, we compared the recovered fluorescence intensities after 12 h of incubation with 10 mM of each nucleotide.
We subsequently evaluated the performance of our system in the context of sustained responsiveness to environmental ATP changes. We conducted an experiment in which we measured fluorescence intensity over time while adding extra ATP in 2 mM increments every 120 min, up to a final concentration of 10 mM.
To verify that the fluorescence signal resulted from ATP-induced structure-switching, we performed experiments with the aptamer-modulated split GFP, in which we included an inhibitory strand that was fully complementary to the ATP aptamer sequence. We first performed an assembly reaction with the ssAPC, ipGFP1-9, and ATP for 12 h to generate a strong fluorescent signal, after which we added the inhibitory strand at varying molar ratios relative to the ssAPC ranging from 1:5 to 1:20 (Figure 2D).

Row | Compound | intensity of green fluorescence of ssAPC/ipGFP1-9 after ATP depletion [1] | fluorescence recovery of ssAPC/ipGFP1-9 assembly by nucleotide (specificity) [2]
1 | Oligomycin A | conspicuous decrease | 
2 | Nc1nc2c(ncn2[C@@H]2O[C@H](COP(=O)(O)OP(=O)(O)OP(=O)(O)O)[C@@H](O)[C@H]2O)c(=O)[nH]1 [GTP] |  | minimal response
3 | Nc1ncnc2c1ncn2[C@@H]1O[C@H](COP(=O)(O)OP(=O)(O)OP(=O)(O)O)[C@@H](O)[C@H]1O [ATP] |  | highly ATP-specific
4 | Nc1ccn([C@@H]2O[C@H](COP(=O)(O)OP(=O)(O)OP(=O)(O)O)[C@@H](O)[C@H]2O)c(=O)n1 [CTP] |  | minimal response
5 | O=c1ccn([C@@H]2O[C@H](COP(=O)(O)OP(=O)(O)OP(=O)(O)O)[C@@H](O)[C@H]2O)c(=O)[nH]1 [UTP] |  | minimal response

Source: paper PMC11317148, “DNA-controlled protein fluorescence: Design of aptamer-split peptide hetero-modulator for GFP to respond to intracellular ATP levels” (Nucleic Acids Research, 2024)
